The structures appear in SMILES notation. Where only a bound is given, the exact number is not on record here.

The test relates to production of kynurenine in KATO-III cells. Kind of test: Inhibitory activity on the production of kynurenine (IFN-γ-treated KATO-III cells, kynurenine in the culture medium quantified by absorbance at 480 nm). It counts as cell-based. The following applies: test compound at 10 μmol/L, human gastric cancer cell line KATO-III, 96 hours, read-out: inhibition rate (production of kynurenine). The protocol:
This assay was performed by a modification of the method described in J. Biol. Chem., vol. 263, pp. 2041-2048 (1988). For culture of the human gastric cancer cell line KATO-III, RPMI 1640 (GIBCO, 11875) supplemented with 10 volt FBS (GIBCO, 10091-148, lot. 665285) was used. One μL of a test substance in a DMSO solution was diluted with 199 μL of the culture medium and placed in wells of a 384-well plate (10 μL/well). Next, IFN-γ (Sigma, 1-3265) was added to the culture medium to a concentration of 31.25 ng/mL, and KATO-III cells were suspended at 50,000 cells/mL in the culture medium. Forty μL of the suspension was added to each well (2,000 cells/well) and incubated under a 5% CO2 atmosphere at 37° C. for 96 hours. The final concentration of DMSO was limited to 0.1 volt or less so that DMSO itself may not affect the kynurenine concentration measured by this assay. After the incubation, 10 μL of a 30 w/vt aqueous trichloroacetic acid solution was added to each well, and incubation was performed at 65° C. for 30 minutes. The plate was centrifuged at 2,500×g for 5 minutes and 15μL of the supernatant in each well was transferred into another 384-well plate. To the transferred supernatant, 15 μL of a 2 w/vt solution of p-dimethylaminobenzaldehyde in acetic acid was added, incubation was performed at 65° C. for 20 minutes and the absorbance was measured at 480 nm.
Sample: the absorbance value of the well to which a DMSO solution containing a test substance was added and in which the cells were treated with IFN-γ.
Blank: the absorbance value of the well to which DMSO not containing a test substance was added and in which the cells were treated with IFN-γ.
Control: the absorbance value of the well to which DMSO not containing a test substance was added and in which the cells were not treated with IFN-γ.
In this assay, expression of IDO in KATO-III cells is induced by IFN-γ treatment and kynurenine in the culture medium is quantified. The kynurenine concentration in a culture medium is known to increase in proportion to the enzymatic activity of intracellular IDO (for example, J. Biol. Chem., vol. 263, pp. 2041-2048 ([…])). […] The production of kynurenine is known to be inhibited by IDO inhibitors (for example, J. Clin. Invest., vol. 117, No. 5, pp. 1147-1154 […]), and thus it is speculated that Compounds (I) also have an inhibitory effect on IDO.

Take `CCCS(=O)(=O)Nc1nc2ccccc2nc1OC(c1cccnc1)C(C)(C)C` (stereo not shown) [Compound 3, N-(3-(2,2-dimethyl-1-(pyridin-3-yl)propoxy)quinoxalin-2-yl) propane-1-sulfonamide]: the inhibition (usually the percentage by which the read-out fell short of the control) at 10 µM is not below 80%.
Next, `CCCS(=O)(=O)Nc1nc2ccccc2nc1OC(c1ccc[n+]([O-])c1)C(C)(C)C` (stereo not shown) [Compound 4, 3-(2,2-dimethyl-1-(3-(propylsulfonamido)quinoxalin-2-yloxy)propyl)pyridine 1-oxide]: not below 80%; `CCCS(=O)(=O)Nc1nc2ccccc2nc1OC(c1ccc[n+]([O-])c1)C1CC1` (stereo not shown) [Compound 6, 3-(cyclopropyl(3-(propylsulfonamido)quinoxalin-2-yloxy)methyl)pyridine 1-oxide]: not below 80%.
To `CCCS(=O)(=O)Nc1nc2ccccc2nc1OC(c1cccnc1)C(C)(C)F` (stereo not shown) [Compound 7, N-(3-(2-fluoro-2-methyl-1-(pyridin-3-yl)propoxy)quinoxalin-2-yl)propane-1-sulfonamide] belongs not below 80%.
Take `CCCS(=O)(=O)Nc1nc2ccccc2nc1OC(c1ccc[n+]([O-])c1)C(C)(C)F` (stereo not shown) [Compound 8, 3-(2-fluoro-2-methyl-1-(3-(propylsulfonamido)quinoxalin-2-yloxy)propyl)pyridine 1-oxide]: the inhibition at 10 µM is not below 80%.
Consider `CCCCC(Oc1nc2ccccc2nc1NS(=O)(=O)CCC)c1cccnc1` (stereo not shown) [Compound 11, N-(3-(1-(pyridin-3-yl)pentyloxy)quinoxalin-2-yl)propane-1-sulfonamide], for which the inhibition at 10 µM was not below 80%.
Consider `CCCCC(Oc1nc2ccccc2nc1NS(=O)(=O)CCC)c1ccc[n+]([O-])c1` (stereo not shown) [Compound 12, 3-(1-(3-(propylsulfonamido)quinoxalin-2-yloxy)pentyl)pyridine 1-oxide], for which the inhibition at 10 µM was not below 80%.
With `CCCS(=O)(=O)Nc1nc2ccccc2nc1OC(c1cccnc1)C1(C)CC1` (stereo not shown) [Compound 13, N-(3-((1-methylcyclopropyl)(pyridin-3-yl)methoxy)quinoxalin-2-yl)propane-1-sulfonamide], the inhibition at 10 µM is not below 80%.
To `CCCS(=O)(=O)Nc1nc2ccccc2nc1OC(c1ccc[n+]([O-])c1)C1(C)CC1` (stereo not shown) [Compound 14, 3-((1-methylcyclopropyl)(3-(propylsulfonamido)quinoxalin-2-yloxy)methyl)pyridine 1-oxide] belongs not below 80%.
To `CCCS(=O)(=O)Nc1nc2ccccc2nc1OC(CC)c1cccnc1` (stereo not shown) [Compound 15, N-(3-(1-(pyridin-3-yl)propoxy)quinoxalin-2-yl)propane-1-sulfonamide] belongs not below 80%; to `CCCS(=O)(=O)Nc1nc2ccccc2nc1OC(CC)c1ccc[n+]([O-])c1` (stereo not shown) [Compound 16, 3-(1-(3-(propylsulfonamido)quinoxalin-2-yloxy)propyl)pyridine 1-oxide], not below 80%.
Take `CCCS(=O)(=O)Nc1nc2ccccc2nc1OC(c1cccnc1)C(F)F` (stereo not shown) [Compound 17, N-(3-(2,2-difluoro-1-(pyridin-3-yl)ethoxy)quinoxalin-2-yl) propane-1-sulfonamide]: the inhibition at 10 µM was not below 80%.
As for `CCCS(=O)(=O)Nc1nc2ccccc2nc1OC(C)c1cccnc1` (stereo not shown) [Compound 19, N-(3-(1-(pyridin-3-yl)ethoxy)quinoxalin-2-yl)propane-1-sulfonamide], the inhibition at 10 µM was not below 80%.
Regarding `CCCC(Oc1nc2ccccc2nc1NS(=O)(=O)CCC)c1cccnc1` (stereo not shown) [Compound 21, N-(3-(1-(pyridin-3-yl)butoxy)quinoxalin-2-yl)propane-1-sulfonamide], the inhibition at 10 µM was not below 80%.
Turning to `CCCC(Oc1nc2ccccc2nc1NS(=O)(=O)CCC)c1ccc[n+]([O-])c1` (stereo not shown) [Compound 22, 3-(1-(3-(propylsulfonamido)quinoxalin-2-yloxy)butyl)pyridine 1-oxide], the inhibition at 10 µM was not below 80%.
`CCCS(=O)(=O)Nc1nc2ccccc2nc1OC(c1ccccc1)c1cccnc1` (stereo not shown) [Compound 23, N-(3-(phenyl(pyridin-3-yl)methoxy)quinoxalin-2-yl)propane-1-sulfonamide]: the inhibition at 10 µM was not below 80%.
`CCCS(=O)(=O)Nc1nc2ccccc2nc1OC(c1ccccc1)c1ccc[n+]([O-])c1` (stereo not shown) [Compound 24, 3-(phenyl(3-(propylsulfonamido)quinoxalin-2-yloxy)methyl)pyridine 1-oxide]: the inhibition at 10 µM was not below 80%.
To `CCCS(=O)(=O)Nc1nc2ccccc2nc1OC(c1ccc(S(C)(=O)=O)cc1)C(F)(F)F` (stereo not shown) [Compound 25, N-(3-(2,2,2-trifluoro-1-(4-(methylsulfonyl)phenyl)ethoxy)quinoxalin-2-yl)propane-1-sulfonamide] belongs not below 80%.
With `CCCS(=O)(=O)Nc1nc2ccccc2nc1OC(c1ccc(C#N)nc1)C(F)(F)F` (stereo not shown) [Compound 26, N-(3-(1-(6-cyanopyridin-3-yl)-2,2,2-trifluoroethoxy)quinoxalin-2-yl)propane-1-sulfonamide], the inhibition at 10 µM is not below 80%.
As to `CCCS(=O)(=O)Nc1nc2ccccc2nc1OC(c1ccc2nccn2c1)C(F)(F)F` (stereo not shown) [Compound 27, N-(3-(2,2,2-trifluoro-1-(imidazo[1,2-a]pyridin-6-yl)ethoxy)quinoxalin-2-yl)propane-1-sulfonamide], the inhibition at 10 µM was not below 80%.
To `CCCCS(=O)(=O)Nc1nc2ccccc2nc1OC(c1ccc2nccn2c1)C(F)(F)F` (stereo not shown) [Compound 28, N-(3-(2,2,2-trifluoro-1-(imidazo[1,2-a]pyridin-6-yl)ethoxy)quinoxalin-2-yl)butane-1-sulfonamide] belongs not below 80%; to `CC(C)CS(=O)(=O)Nc1nc2ccccc2nc1OC(c1ccc2nccn2c1)C(F)(F)F` (stereo not shown) [Compound 29, 2-methyl-N-(3-(2,2,2-trifluoro-1-(imidazo[1,2-a]pyridin-6-yl)ethoxy)quinoxalin-2-yl)propane-1-sulfonamide], not below 80%.
As to `O=S(=O)(CC1CC1)Nc1nc2ccccc2nc1OC(c1ccc2nccn2c1)C(F)(F)F` (stereo not shown) [Compound 30, 1-cyclopropyl-N-(3-(2,2,2-trifluoro-1-(imidazo[1,2-a]pyridin-6-yl)ethoxy)quinoxalin-2-yl)methanesulfonamide], the inhibition at 10 µM was not below 80%.
To `CCCS(=O)(=O)Nc1nc2ccccc2nc1OC(c1ccc(CO)nc1)C(F)(F)F` (stereo not shown) [Compound 31, N-(3-(2,2,2-trifluoro-1-(6-(hydroxymethyl)pyridin-3-yl)ethoxy)quinoxalin-2-yl)propane-1-sulfonamide] belongs not below 80%.
Consider `CCCS(=O)(=O)Nc1nc2ccccc2nc1OC(c1ccc(-c2cnn(C)c2)nc1)C(F)(F)F` (stereo not shown) [Compound 32, N-(3-(2,2,2-trifluoro-1-(6-(1-methyl-1H-pyrazol-4-yl)pyridin-3-yl)ethoxy)quinoxalin-2-yl)propane-1-sulfonamide], for which the inhibition at 10 µM is not below 80%.
With `CCCCS(=O)(=O)Nc1nc2ccccc2nc1OC(c1ccc(-c2cnn(C)c2)nc1)C(F)(F)F` (stereo not shown) [Compound 33, N-(3-(2,2,2-trifluoro-1-(6-(1-methyl-1H-pyrazol-4-yl)pyridin-3-yl)ethoxy)quinoxalin-2-yl)butane-1-sulfonamide], the inhibition at 10 µM was not below 80%.
Next, `CCCCS(=O)(=O)Nc1nc2ccccc2nc1OC(c1ccc(S(C)(=O)=O)nc1)C(F)(F)F` (stereo not shown) [Compound 40, N-(3-(2,2,2-trifluoro-1-(6-(methylsulfonyl)pyridin-3-yl)ethoxy)quinoxalin-2-yl)butane-1-sulfonamide]: not below 80%; `CCCCS(=O)(=O)Nc1nc2ccccc2nc1OC(c1ccc([S+](C)[O-])nc1)C(F)(F)F` (stereo not shown) [Compound 41, N-(3-(2,2,2-trifluoro-1-(6-(methylsulfinyl)pyridin-3-yl)ethoxy)quinoxalin-2-yl)butane-1-sulfonamide]: not below 80%.
Next, `CCCS(=O)(=O)Nc1nc2ccccc2nc1OC(c1ccncc1)C(F)(F)F` (stereo not shown) [Compound 42, N-(3-(2,2,2-trifluoro-1-(pyridin-4-yl)ethoxy)quinoxalin-2-yl)propane-1-sulfonamide]: not below 80%; `CCCS(=O)(=O)Nc1nc2ccccc2nc1OC(c1cc[n+]([O-])cc1)C(F)(F)F` (stereo not shown) [Compound 43, 4-(2,2,2-trifluoro-1-(3-(propylsulfonamido)quinoxalin-2-yloxy)ethyl)pyridine 1-oxide]: not below 80%; `CCCS(=O)(=O)Nc1nc2ccccc2nc1OC(c1ccnc(C#N)c1)C(F)(F)F` (stereo not shown) [Compound 44, N-(3-(1-(2-cyanopyridin-4-yl)-2,2,2-trifluoroethoxy)quinoxalin-2-yl)propane-1-sulfonamide]: not below 80%.

The values above are taken from patent US9150569B2, “Nitrogen-containing heterocyclic compound having inhibitory effect on production of kynurenine” (KYOWA HAKKO KIRIN CO., LTD., priority 2010, dated 2015).
